These results are taken from patent US6689094B2, “Compound delivery using impulse transients” (priority 1996, dated 2004).

The subject of the data set is stratum corneum. The source says:
For these experiments, a Q-switched solid state ruby laser (20 ns pulse duration, capable of generating up to 2 joules per pulse) was used to generate the laser beam, which hit the target material (black polystyrene sheet about 1 mm thick) and generated a single impulse transient. Impulse transients of up to 1000 bar peak stress and 50 ns duration and with a ½ inch beam diameter can be generated with this laser-target system. The large target ensures that the impulse transients generated are plane waves, because the thickness of the coupling medium is much shorter than the diameter of the impulse transient. An articulating arm was used and the laser path was totally covered for safety.
The washer was attached onto the skin with grease. The sample filled the central opening of the washer, which was approximately ¼ inch in diameter. The target material was positioned on top of the washer and irradiated with 1 laser pulse.
The black polystyrene target completely absorbed the laser radiation so that the skin was exposed only to impulse transients, and not laser radiation. […] The skin was monitored for fluorescence of protophyrin IX thirty minutes after exposure to the impulse transients.
All fluorescence measurements were compared to the fluorescence emission of the target site on the stratum corneum before the experiments.

For the molecule `NCC(=O)CCC(=O)O` [ALA, 5-aminolevulenic acid], under “5% ALA in PBS, single impulse transient, skin fluorescence”, the “time for which protophyrin IX fluorescence intensity increased until maximum intensity” value is recorded as “approximately 4 hours”. Under “ALA applied on the same sites 5 minutes after impulse transients”, the “protophyrin IX fluorescence when compound applied after the impulse transient” value is on record as “no fluorescence emission from protophyrin IX was observed”. Further, the “time post-treatment at which the fluorescence peak at about 640 nm is highest” value (FIG. 1, single impulse transient) was found to be 210 min. Under “FIG. 2, adjacent control site, ALA applied without any impulse transients”, the “change of skin fluorescence intensity over time without impulse transient” value was “little change in the intensity”. In addition, the “dependence of transdermal transport on peak stress” value (FIG. 3, single impulse transient at 300, 400 or 600 bar) is on record as “increases with increasing peak stress”.
